Experiments:
[1] = target: T1, Sulfolobus acidocaldarius-derived geranylgeranyl diphosphate synthase (Sulfolobus acidocaldarius, UniProt P39464); assay: Relative activity of geranylgeranyl diphosphate synthase on initiating substrates; assay type: biochemical; settings: 12.5 μM initiating substrate, pH 5.8, 1 hour, 55° C.
T1 construct: made in house; host or cells: E. coli BL21 (DE3)
Procedure: Likewise, reaction was performed under conditions shown below using Sulfolobus acidocaldarius-derived geranylgeranyl diphosphate synthase and each of the initiating substrates 1 to 4, the compound represented by the formula (B), the compound represented by the formula (C), the compound represented by the formula (G), the compound represented by the formula (K), the compound represented by the formula (F), the compound represented by the formula (I), the compound represented by the formula (Q), farnesyl diphosphate (FPP), and geranyl diphosphate (GPP). The results were indicated in Tables 12 and 13 by the relative activity of the enzyme on the initiating substrates 1 to 4, the compound represented by the formula (B), the compound represented by the formula (C), the compound represented by the formula (G), the compound represented by the formula (K), the compound represented by the formula (F), the compound represented by the formula (I), and the compound represented by the formula (QO) with the activity of the enzyme on farnesyl diphosphate or geranyl diphosphate as 100.
(§1) After the reaction, liquid scintillation counting and TLC quantification were performed to measure the activity of the enzyme on each initiating substrate.

[2] = target: T2, variant enzyme F95W of undecaprenyl diphosphate synthase (Micrococcus luteus, UniProt O82827, F95W); assay: Relative activity of variant enzyme F95W on initiating substrates; assay type: biochemical, Micrococcus luteus B-P 26; settings: index, activity of wild-type enzyme on same initiating substrate as 100; 12.5 μM initiating substrate, 1 hour, 37° C.
T2 construct: made in house; host or cells: E. coli; site-directed mutagenesis of pET22b/MLU-UPS
T2 sequence (O82827 whole entry F95W): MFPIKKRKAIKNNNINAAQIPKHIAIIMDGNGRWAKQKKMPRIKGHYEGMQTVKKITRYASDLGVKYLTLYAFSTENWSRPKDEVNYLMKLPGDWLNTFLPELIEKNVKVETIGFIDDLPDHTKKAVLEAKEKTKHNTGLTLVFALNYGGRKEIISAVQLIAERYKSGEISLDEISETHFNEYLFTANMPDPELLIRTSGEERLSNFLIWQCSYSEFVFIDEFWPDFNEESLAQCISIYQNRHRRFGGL
Procedure: (§2) Reaction was performed under conditions shown below using each of the initiating substrates prepared in Production Examples 1 to 11 or farnesyl diphosphate. The activity of each variant enzyme on each initiating substrate was indicated by index with the activity of the wild-type enzyme (Micrococcus luteus B-P 26-derived undecaprenyl diphosphate synthase) as 100.
(§3) After the reaction, liquid scintillation counting and TLC quantification were performed to measure the activity of each enzyme.

[3] = target: T3, variant enzyme F95A of undecaprenyl diphosphate synthase (Micrococcus luteus, UniProt O82827, F95A); assay: Relative activity of variant enzyme F95A on initiating substrates; assay type: biochemical, Micrococcus luteus B-P 26; settings: index, activity of wild-type enzyme on same initiating substrate as 100; 12.5 μM initiating substrate, 1 hour, 37° C.
T3 construct: made in house; host or cells: E. coli; site-directed mutagenesis of pET22b/MLU-UPS
T3 sequence (O82827 whole entry F95A): as the sequence (O82827 whole entry F95W) above, with W95A counted along it
Procedure: as §2, §3

[4] = target: T4, variant enzyme L91K of undecaprenyl diphosphate synthase (Micrococcus luteus, UniProt O82827, L91K); assay: Relative activity of variant enzyme L91K on initiating substrates; assay type: biochemical, Micrococcus luteus B-P 26; settings: index, activity of wild-type enzyme on same initiating substrate as 100; 12.5 μM initiating substrate, 1 hour, 37° C.
T4 construct: made in house; host or cells: E. coli; site-directed mutagenesis of pET22b/MLU-UPS
T4 sequence (O82827 whole entry L91K): as the sequence (O82827 whole entry F95W) above, with L91K, W95F counted along it
Procedure: as §2, §3

[5] = target: T5, Micrococcus luteus B-P 26-derived undecaprenyl diphosphate synthase (wild-type enzyme) (Micrococcus luteus, UniProt O82827); assay: Relative activity of wild-type undecaprenyl diphosphate synthase on initiating substrates; assay type: biochemical; settings: activity of the enzyme on farnesyl diphosphate as 100; 12.5 μM initiating substrate, pH 7.5, 1 hour, 37° C.
T5 construct: made in house; host or cells: E. coli; plasmid pET22b/MLU-UPS
T5 sequence (O82827 whole entry): as the sequence (O82827 whole entry F95W) above, with W95F counted along it
Procedure: as §2, §3
Next, reaction was performed under conditions shown below using Micrococcus luteus B-P 26-derived undecaprenyl diphosphate synthase as an enzyme and each of the initiating substrates 1 to 4, the compound represented by the formula (B), the compound represented by the formula (C), the compound represented by the formula (G), the compound represented by the formula (K), and farnesyl diphosphate (FPP). The results were indicated in Table 10 by the relative activity of the enzyme on the initiating substrates 1 to 4, the compound represented by the formula (B), the compound represented by the formula (C), the compound represented by the formula (G), and the compound represented by the formula (K) with the activity of the enzyme on farnesyl diphosphate as 100.
as §1

[6] = target: T6, variant enzyme N31A of undecaprenyl diphosphate synthase (Micrococcus luteus, UniProt O82827, N31A); assay: Relative activity of variant enzyme N31A on initiating substrates; assay type: biochemical, Micrococcus luteus B-P 26; settings: index, activity of wild-type enzyme on same initiating substrate as 100; 12.5 μM initiating substrate, 1 hour, 37° C.
T6 construct: made in house; host or cells: E. coli; site-directed mutagenesis of pET22b/MLU-UPS
T6 sequence (O82827 whole entry N31A): as the sequence (O82827 whole entry F95W) above, with N31A, W95F counted along it
Procedure: as §2, §3

[7] = target: T7, variant enzyme N77Q of undecaprenyl diphosphate synthase (Micrococcus luteus, UniProt O82827, N77Q); assay: Relative activity of variant enzyme N77Q on initiating substrates; assay type: biochemical, Micrococcus luteus B-P 26; settings: index, activity of wild-type enzyme on same initiating substrate as 100; 12.5 μM initiating substrate, 1 hour, 37° C.
T7 construct: made in house; host or cells: E. coli; site-directed mutagenesis of pET22b/MLU-UPS
T7 sequence (O82827 whole entry N77Q): as the sequence (O82827 whole entry F95W) above, with N77Q, W95F counted along it
Procedure: as §2, §3

[8] = target: T8, variant enzyme N77A of undecaprenyl diphosphate synthase (Micrococcus luteus, UniProt O82827, N77A); assay: Relative activity of variant enzyme N77A on initiating substrates; assay type: biochemical, Micrococcus luteus B-P 26; settings: index, activity of wild-type enzyme on same initiating substrate as 100; 12.5 μM initiating substrate, 1 hour, 37° C.
T8 construct: made in house; host or cells: E. coli; site-directed mutagenesis of pET22b/MLU-UPS
T8 sequence (O82827 whole entry N77A): as the sequence (O82827 whole entry F95W) above, with N77A, W95F counted along it
Procedure: as §2, §3

[9] = target: T9, variant enzyme N31Q of undecaprenyl diphosphate synthase (Micrococcus luteus, UniProt O82827, N31Q); assay: Relative activity of variant enzyme N31Q on initiating substrates; assay type: biochemical, Micrococcus luteus B-P 26; settings: index, activity of wild-type enzyme on same initiating substrate as 100; 12.5 μM initiating substrate, 1 hour, 37° C.
T9 construct: made in house; host or cells: E. coli; site-directed mutagenesis of pET22b/MLU-UPS
T9 sequence (O82827 whole entry N31Q): as the sequence (O82827 whole entry F95W) above, with N31Q, W95F counted along it
Procedure: as §2, §3

[10] = target: T10, variant enzyme L91G of undecaprenyl diphosphate synthase (Micrococcus luteus, UniProt O82827, L91G); assay: Relative activity of variant enzyme L91G on initiating substrates; assay type: biochemical, Micrococcus luteus B-P 26; settings: index, activity of wild-type enzyme on same initiating substrate as 100; 12.5 μM initiating substrate, 1 hour, 37° C.
T10 construct: made in house; host or cells: E. coli; site-directed mutagenesis of pET22b/MLU-UPS
T10 sequence (O82827 whole entry L91G): as the sequence (O82827 whole entry F95W) above, with L91G, W95F counted along it
Procedure: as §2, §3

[11] = target: T11, variant enzyme L91D of undecaprenyl diphosphate synthase (Micrococcus luteus, UniProt O82827, L91D); assay: Relative activity of variant enzyme L91D on initiating substrates; assay type: biochemical, Micrococcus luteus B-P 26; settings: index, activity of wild-type enzyme on same initiating substrate as 100; 12.5 μM initiating substrate, 1 hour, 37° C.
T11 construct: made in house; host or cells: E. coli; site-directed mutagenesis of pET22b/MLU-UPS
T11 sequence (O82827 whole entry L91D): as the sequence (O82827 whole entry F95W) above, with L91D, W95F counted along it
Procedure: as §2, §3

[12] = target: T12, variant enzyme L91N of undecaprenyl diphosphate synthase (Micrococcus luteus, UniProt O82827, L91N); assay: Relative activity of variant enzyme L91N on initiating substrates; assay type: biochemical, Micrococcus luteus B-P 26; settings: index, activity of wild-type enzyme on same initiating substrate as 100; 12.5 μM initiating substrate, 1 hour, 37° C.
T12 construct: made in house; host or cells: E. coli; site-directed mutagenesis of pET22b/MLU-UPS
T12 sequence (O82827 whole entry L91N): as the sequence (O82827 whole entry F95W) above, with L91N, W95F counted along it
Procedure: as §2, §3

[13] = target: T13, Bacillus stearothermophilus-derived farnesyl diphosphate synthase (Geobacillus stearothermophilus, UniProt Q08291); assay: Relative activity of farnesyl diphosphate synthase on initiating substrates; assay type: biochemical; settings: activity of the enzyme on geranyl diphosphate as 100; 12.5 μM initiating substrate, pH 8.5, 1 hour, 55° C.
T13 construct: made in house; host or cells: E. coli BL21 (DE3)
T13 sequence (Q08291 whole entry): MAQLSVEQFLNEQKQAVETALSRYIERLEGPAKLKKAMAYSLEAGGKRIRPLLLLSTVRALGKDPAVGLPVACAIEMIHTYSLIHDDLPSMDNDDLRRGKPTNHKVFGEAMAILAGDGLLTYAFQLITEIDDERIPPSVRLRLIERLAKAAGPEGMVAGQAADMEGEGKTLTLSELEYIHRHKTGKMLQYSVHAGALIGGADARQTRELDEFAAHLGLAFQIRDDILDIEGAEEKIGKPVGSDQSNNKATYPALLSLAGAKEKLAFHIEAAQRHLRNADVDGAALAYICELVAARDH
Procedure: Reaction was performed under conditions shown below using the obtained Bacillus stearothermophilus-derived farnesyl diphosphate synthase and each of the initiating substrates 1 to 4, the compound represented by the formula (F), the compound represented by the formula (I), the compound represented by the formula (QO), and geranyl diphosphate (GPP) whose structure is shown below. The results were indicated in Table 11 by the relative activity of the enzyme on the initiating substrates 1 to 4, the compound represented by the formula (F), the compound represented by the formula (I), and the compound represented by the formula (Q) with the activity of the enzyme on geranyl diphosphate as 100.
as §1

[14] = activity of the enzyme on farnesyl diphosphate as 100
[15] = activity of the enzyme on geranyl diphosphate as 100

T1 sequence (P39464 whole entry): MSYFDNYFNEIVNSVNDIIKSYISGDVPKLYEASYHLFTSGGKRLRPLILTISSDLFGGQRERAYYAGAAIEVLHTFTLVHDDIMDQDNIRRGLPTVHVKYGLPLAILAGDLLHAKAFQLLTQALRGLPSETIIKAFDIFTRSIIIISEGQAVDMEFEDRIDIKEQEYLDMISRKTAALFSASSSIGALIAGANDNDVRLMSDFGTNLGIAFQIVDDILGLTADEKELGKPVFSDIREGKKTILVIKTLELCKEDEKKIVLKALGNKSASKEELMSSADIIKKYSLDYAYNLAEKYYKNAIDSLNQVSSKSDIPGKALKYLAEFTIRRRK

Molecule	Relative activity (%) [1, 14] [%]	Relative activity [2]	Relative activity [3]	Relative activity [4]	Relative activity (%) [5] [%]	Relative activity [6]	Relative activity [7]	Relative activity [8]	Relative activity [9]	Relative activity [10]	Relative activity [11]	Relative activity [12]	Relative activity (%) [1, 15] [%]	Relative activity (%) [13] [%]
7-acetyl-7-aza-3-methyl-dodeca-(2E)-dienyl diphosphate [Compound of formula (K)]	38.6	148	136	112	40.6									
CC[C@@H](O)CC/C(C)=C/CC/C(C)=C/COP(=O)(O)OP(=O)(O)O [Compound of formula (E), (10R)-hydroxy-3,7-dimethyl-dodeca-(2E,6E)-dienyl diphosphate]		114	120	163		222	194	396	210	170	320	271		
CC(C)=CCC/C(C)=C/CC/C(C)=C/CC/C=C/COP(=O)(O)OP(=O)(O)O [Initiating substrate 4, 7,11,15-trimethyl-hexadeca-2E,6E,10E,14E-tetraenyl diphosphate]	1.4				5.9								0.8	0.7
CC(C)=CCC/C(C)=C/CC/C=C/COP(=O)(O)OP(=O)(O)O [Initiating substrate 3, 7,11-dimethyl-dodeca-2E,6E,10E-trienyl diphosphate]	3.9				1.2								0.6	2.1
CC[C@H](O)CC/C(C)=C/CC/C(C)=C/COP(=O)(O)OP(=O)(O)O [Compound of formula (D), (10S)-hydroxy-3,7-dimethyl-dodeca-(2E,6E)-dienyl diphosphate]		120		101		179	124	208	104	134	125	103		
C/C=C/COP(=O)(O)OP(=O)(O)O [Initiating substrate 1, 2E-butenyl diphosphate]	2.3				0.3								0.4	1.4
CCCCC(OC)/C(C)=C/CC/C(C)=C/COP(=O)(O)OP(=O)(O)O (stereo not drawn) [Compound of formula (B), 8-methoxy-3,7-dimethyl-dodeca-(2E,6E)-dienyl diphosphate]	70.6	140	128	156	68.4	116		319		149	231			
CCC(O)CC/C(C)=C/CC/C(C)=C/COP(=O)(O)OP(=O)(O)O [Compound of formula (R), 10-hydroxy-3,7-dimethyl-dodeca-(2E,6E)-dienyl diphosphate]		121	140	165		200	156	254	146	110	230	137		
C/C(=C\COP(=O)(O)OP(=O)(O)O)CC/C=C(\C)COCc1ccccc1 [Compound of formula (N), 8-benzyloxy-3,7-dimethyl-octa-(2E,6E)-dienyl diphosphate]		147	132				133	112						
CC(C)=CCC/C=C/COP(=O)(O)OP(=O)(O)O [Initiating substrate 2, 7-methyl-octa-2E,6E-dienyl diphosphate]	2.5				0.6								0.4	3.2
CCCSC/C(C)=C/CC/C(C)=C/COP(=O)(O)OP(=O)(O)O [Compound of formula (M), 8-n-propylthio-3,7-dimethyl-octa-(2E,6E)-dienyl diphosphate]				112		149		127	101		123	139		
C/C(=C\COP(=O)(O)OP(=O)(O)O)CC/C=C(\C)CO[Si](C)(C)C(C)(C)C [Compound of formula (P), 8-[(tert-butyldimethylsilyl)oxy]-3,7-dimethyl-octa-(2E,6E)-dienyl diphosphate]		130	104							104	112			
COCOC/C(C)=C/CC/C(C)=C/COP(=O)(O)OP(=O)(O)O [Compound of formula (H), 8-methoxymethoxy-3,7-dimethyl-octa-(2E,6E)-dienyl diphosphate]						152		162	110					
CCCCC(O)/C(C)=C/CC/C(C)=C/COP(=O)(O)OP(=O)(O)O (stereo not drawn) [Compound of formula (C), 8-hydroxy-3,7-dimethyl-dodeca-(2E,6E)-dienyl diphosphate]	37.3			130	74.8	111		234		146	155	108		
CCC(CC/C(C)=C/CC/C(C)=C/COP(=O)(O)OP(=O)(O)O)C(C)=O [Compound of formula (S), 10-acetyl-3,7-dimethyl-dodeca-(2E,6E)-dienyl diphosphate]		130	163	147		116				130	227			
